Legend:
Cyclosporin nephritis = assay: Cyclosporin Nephritis Model; format: in vivo, Spontaneously hypertensive rats; conditions: 3.2 mg/kg orally twice a day for two weeks; cyclosporin 50 mg/kg daily
Protocol: Cyclosporin Nephritis Model
Spontaneously hypertensive rats weighing 250-300 g were used. Cyclosporin dissolved in olive-oil containing 5% ethanol was given orally to the animals in a daily dose 50 mg/kg for 2 weeks. After the last dosing of cyclosporin, 24-hours urine was collected for urinalysis. Blood was withdrawn from the abdominal aorta under ether anesthesia 24 hours after the last dosing of cyclosporin, and plasma was separated by centrifugation for biochemical analysis. The animal were bled to death and kidneys were removed for histopathological examination.
The each test compound (3.2 mg/kg) was dissolved in PEG 400 and given orally by the volume of 1 ml/kg twice a day for two weeks.
Biochemistry and urinalysis: Urine volume, plasma creatinine, urine creatinine, blood urea nitrogen, plasma sodium, urine sodium, plasma potassium and urine potassium, were measured with an autoanalyzer (TBA-20R Toshiba, OM-6020 Daiichi Kagaku).
Histopathology: The kidneys were fixed in phosphate-buffered 10% formalin and its paraffin specimens were prepared and these sections were stained with hematoxylin.

[1] = system: Coronary vasospasm induced with vasopressin; assay: Vasopressin Induced-vasospasm Model (ST segment depression); format: in vivo, Male Donryu rats; conditions: 10 mg/kg orally 30 minutes before vasopressin 0.2 iu/kg
Protocol: Vasopressin Induced-vasospasm Model
Male Donryu rats, weighing 160-200 g, were anesthetized intraperitoneally with sodium pentobarbital (60 mg/kg) 15 minutes before intravenous administration of vasopressin, and the femoral vein was cannulated with polyethylene tubing (diameter 0.8 mm). Coronary vasospasm was induced with vasopressin (0.2 iu/kg) dissolved in saline through the cannula in the femoral vein. The each test compound (10 mg/kg) was administered orally 30 minutes before the administration of vasopressin. The standard limb lead II of the electrocardiogram was recorded with an electrocardiograph. The depression of ST segment was measured as the difference in the amplitudes of the ST segment after and just before the administration of vasopressin. The amplitudes of ST segment were measured at intervals of 0.5 minutes for 5 minutes after administration of vasopressin.

[2] = system: aorta (spirally cut strips); assay: Smooth Muscle Relaxant: noradrenaline-contracted rat aorta strips; set-up: species or system male Wistar rats; conditions: contraction by noradrenaline 1 μM, 37° C.
Protocol: The aorta were carefully removed from male Wistar rats, cleaned of fat and extraneous tissue. Spirally cut strips of the aorta were placed in a 25 ml organ bath containing Tyrode solution of the following composition (mM); NaCl, 137; KCl, 2.7; CaCl2, 1.8; NaH2 PO4, 0.4; NaHCO3, 12.0; MgSO4, 1.1; glucose, 5.6. The bath was maintained at 37° C. and bubbled with 95% O2 and 5% CO2. The spirally cut strip was stretched to a resting force of 1.0 g, and the isometric contraction was recorded via a force development transducer on an ink writing recorder. Tissues were equilibrated for 60 minutes before contraction was induced by noradrenaline (NA, 1 μM). The test compounds were cumulatively added to organ bath in increasing concentrations ranging from 10^-8 to 10^-5 M, after maximum stable constriction to NA had been achieved.

With `CCCc1c(C(=O)C(C)C)c2ccc(C(N)=O)cc2n1Cc1ccccc1Cl` [Example 6, 1-(2-chlorobenzyl)-3-isobutyryl-2-propylindole-6-carboxamide] the “recovery in a measure of blood urea nitrogen” value (Cyclosporin nephritis) was “more than 50%”, the “recovery in a measure of creatinine clearance (ml/kg/min)” value (Cyclosporin nephritis) was “more than 40%” and the “inhibiting activity (depression of ST segment)” value [1] was “more than 50%”. For the same molecule, the IC50 [2] was < 100 nM.
